We go through five compounds from patent US10653664B2, “Antibacterial compositions of mono-alkyl ethers of monoanhydro-hexitols and antibacterial methods using of the same” (TEREOS STARCH & SWEETENERS, priority 2014, dated 2020).

Molecules are shown by their SMILES. ≈ marks a conversion by molar mass, not a printed value.

Common to all, as to assay: MIC, 96-well microplate microdilution (Example 14)
Assay type in all cases: cell-based
For orientation: Dilution methods test growth across graded concentrations, often in twofold steps.

For assay [1], the system named is E. faecalis (ATCC 29212). The following applies: Enterococcus faecalis, ATCC29212, Table 5, read-out: Minimum inhibitory concentration (MIC). As to the method:
(§1) The bacteriostatic properties of the derivatives are evaluated by measuring their minimum inhibitory concentration (MIC) on the bacteria tested. These measurements are made using the 96-well microplate microdilution method according to the conditions defined below. The minimum inhibitory concentrations (MIC) are tested on Gram-positive bacterial strains according to the recommendations of the “Clinical Laboratory Standards Institute” (Clinical-Laboratory-Standards-Institute, 6th ed. Approved standard M100-S17. CLSI, Wayne, Pa., 2007). The Gram-positive bacteria studied are as follows: L. monocytogenes (CIP 103575), E. faecalis (ATCC® 29212™) and S. aureus (ATCC® 292213 ™). The cultures studied, freshly isolated (after incubation on a blood agar at 37° C. for 18 h), are taken up in sterile water (10 mL) until obtaining a 0.5 McFarland (Mc) suspension i.e. 1 to 2×10^8 CFU (bacteria)/cm^3. The bacterial suspension was then diluted to obtain a final concentration of 5×10^5 CFU/cm3. Each well contains an identical quantity of Mueller-Hinton medium (a rich medium for bacterial culture) and bacteria with final 5×10^5 CFU/cm3. The test compounds of interest are solubilized in 2.5% of ethanol before being diluted to different concentrations two by two. On the multiwell plate, a first series has been planned comprising the culture medium without the test compound of interest. It corresponds to the growth control (control well). These controls serve as reference for comparing bacterial growth with that of the subsequent wells comprising different concentrations of the test compound of interest. The second series of wells comprises the mother solution for the test compound of interest for a concentration in the wells of 4 mM. Each series of wells was diluted two by two until the last series for a final concentration of 0.003 mM. Each concentration is duplicated in the same plate. The plate is incubated for 18 h at 37° C. […] If there is antibacterial activity, the bacterial growth is inhibited, which means that no turbidity or bacterial residue is present.

Assay [2] has as its system L. monocytogenes (CIP 103575). The following applies: for MIC: Listeria monocytogenes, CIP103575, Table 5, read-out: Minimum inhibitory concentration (MIC). Here is the method:
as §1

The test system of assay [3] is S. aureus (ATCC 292213). The following applies: for MIC: Staphylococcus aureus, ATCC292213, Table 5, read-out: Minimum inhibitory concentration (MIC). As to the method:
as §1

[4] abbreviates: Table 7 comparison with reference products.

Take `CCCCCCOCC(O)[C@H]1OCC(O)C1O` (some centres unmarked) [Entry 2]: the MIC in assay [1], in assay [2] and in assay [3] was over 4 mM each time.
As to `CCCCCCCCCCOCC(O)[C@H]1OCC(O)C1O` (some centres unmarked) [Entry 4, Decyl-1,4-sorbitan], the MIC in assay [1], in assay [2] and in assay [3] was over 4 mM in each case.
`CCCCCCCCOCC(O)[C@H]1OCC(O)C1O` (some centres unmarked) [Entry 3, Octyl-1,4-sorbitan]: the MIC in assay [1], in assay [2] and in assay [3] was over 4 mM each time.
For the compound `CCCCCOCC(O)[C@H]1OCC(O)C1O` (some centres unmarked) [Entry 1, (1,4)-sorbitan pentyl ethers], the MIC in assay [1], in assay [2] and in assay [3] was over 4 mM each time.
`CCCCCCCCCCCC(=O)OCC(O)CO` (centres unmarked) [ML, monolaurine, reference compound]: the “Minimum inhibitory concentration (MIC)” value in assay [2] (setting [4]) and in assay [3] (setting [4]) was 0.04 mM (≈ 11 µg/mL) throughout.
